According to patent US20220187282A1, “CARDIOMYOCYTE PROLIFERATION” (The Council of the Queensland Institute of Medical Research, priority 2019, published 2022):

Columns and labels:
Type in all cases: cell-based, human
[1] = tested on: NAP1L1 Cys-388, NAP1L4 Cys-383; assay: quantifying prenylated (farnesylated) proteins in hCO proteomics
Method: Targeted data extraction to quantify prenylated peptides was performed manually in the Skyline Environment (MacLean et al., 2010) on Andremoda/MaxQuant search results which included the variable modification of farnesylation (cysteine; C15H24; 204.1878) and geranylation (cysteine; […]; 272.2504) with neutral loss. Only peptides with an Andromeda score >100 and a localization probability >0.75% were included in the analysis.
Given that several metabolites of the mevalonate pathway are required for post-translational modifications such as prenylation, we next performed targeted data extraction of our proteomic analysis (Gillet et al., 2012) for the addition of geranylgeranyl or farnesyl groups. We identified key targets of farnesylation, including NAP1L1 at Cys-388, which was also shown to be farnesylated in a prior study (Kho et al., 2004), and NAP1L4 at Cys-383, which we have identified as a novel farnesylated protein (FIG. 15C).

mature hCO = assay: single organoid quantitative proteomics of mature hCO; settings: for cell cycle programs regulated at the protein level: mature hCO, 2 days
Method: Single hCO were washed 2× in PBS and snap frozen and stored at −80° C. Tissues were lysed in by tip-probe sonication in 1% SDS containing 100 mM Tris pH 8.0, 10 mM tris(2-carboxyethyl)phosphine, 40 mM 2-chloroacetamide and heated to 95° C. for 5 min. Proteins were purified using a modified Single-Pot Solid-Phase-enhanced Sample Preparation (SP3) strategy (Hughes et al., 2014). Briefly, Proteins were bound to Sera-Mag carboxylate coated paramagnetic beads in 50% acetonitrile containing 0.8% formic acid (v/v) (ThermoFisher Scientific). The beads were washed twice with 70% ethanol (v/v) and once with 100% acetonitrile. Proteins were digested on the beads in 100 mM Tris pH 7.5 containing 10% 2,2,2-Trifluoroethanol overnight at 37° C. with 200 ng of sequencing grade LysC (Wako Chemicals) and trypsin (Sigma). Beads were removed and peptides acidified to 1% trifluoroacetic acid prior to purification by styrene divinyl benzene-reversed phase sulfonated solid phase extraction microcolumns. Peptides were spiked with iRT peptides (Biognosys) and analysed on an Easy-nLC1200 coupled to a Q-Exactive HF in positive polarity mode. Peptides were separated using an in-house packed 75 μm×50 cm pulled column (1.9 μm particle size, C18AQ; Dr Maisch) with a gradient of 2-35% acetonitrile containing 0.1% FA over 120 min at 300 nL/min at 60° C. The instrument was operated in data-independent acquisition (DIA) mode essentially as described previously (Bruderer et al., 2017). Briefly, an MS1 scan was acquired from 350-1650 m/z (120,000 resolution, 3e6 AGC, 50 ms injection time) followed by 20 MS/MS variable sized isolation windows with HCD (30,000 resolution, 3e6 AGC, 27 NCE). A spectral library was created by fractionating a pooled mix of peptides from 10 separate hCO on an inhouse packed 320 μm×25 cm column (3 μm particle size, BEH; Waters) with a gradient of 2-40% acetonitrile containing 10 mM ammonium formate over 60 min at 6 μL/min using an Agilent 1260 HPLC. A total of 12 concatenated fractions were analysed using the identical LC-MS/MS conditions above except the instrument was operated in data-dependent acquisition (DDA) mode. Briefly, an MS1 scan was acquired from 350-1650 m/z (60,000 resolution, 3e6 AGC, 50 ms injection time) followed by 20 MS/MS with HCD (1.4 m/z isolation, 15,000 resolution, 1e5 AGC, 27 NCE). DDA data were processed with Andromeda in MaxQuant v1.5.8.3 (Cox and Mann, 2008) against the human UniProt database (January 2016) using all default settings with peptide spectral matches and protein false discovery rate (FDR) set to 1%. DIA data were processed with Spectronaut v11 (Bruderer et al., 2015) using all default settings with precursor and protein FDR set to 1% and quantification performed at MS2.
Proteomic data were Log 2 transformed and median normalised. Removal of unwanted variation method (RUV) was applied to remove any batch effects (Gagnon-Bartsch et al., 2013). Differential abundance was determined with two sample t-tests with FDR-based multiple hypothesis testing correction. GO analysis was performed with DAVID v6.8 and gene ontology terms from BP_FAT (Huang da et al., 2009) and heat-maps and hierarchical clustering was performed using GENE-E (Broad Institute).
In order to determine the biological processes driving the pro-proliferative effects of our hit compounds, we performed RNA-sequencing (RNA-seq) and single organoid quantitative proteomics (FIG. 4A). These analyses were performed on hCOs treated with compounds 3, 63 and 65 at concentrations of 3 μM, 0.3 μM and 1 μM, respectively. RNA-seq for hCO treated with compounds 3 and 65 clustered distinctly in principal component analysis (FIG. 4B) and regulated a total of 239 and 207 genes (FIG. 9A), respectively.

mature hCOs = assay: mature hCO, mitosis (pH3) of cardiomyocytes; settings: 2 days, optimal concentrations
Method: Whole-Mount Immunostaining hCOs were fixed for 60 min with 1% paraformaldehyde (Sigma) at room temperature and washed 3× with PBS, after which they were incubated with primary antibodies (see Star Methods Table) in Blocking Buffer, 5% FBS and 0.2% Triton-X-100 (Sigma) in PBS overnight at 4° C. Cells were then washed in Blocking Buffer 2× for 2 h and subsequently incubated with secondary antibodies (see Star Methods Table) and Hoechst33342 (1:1000) overnight at 4° C. They were washed in Blocking Buffer 2× for 2 h and imaged in situ or mounted on microscope slides using Fluoromount-G (Southern Biotech).
For more detailed images an Olympus IX81 confocal microscope was used for mounted hCO imaging. For cell cycle analysis experiments 3 random fields of view were imaged and manually quantified for proliferation. These were added together to calculate the percentage of hPSC-CM proliferation in each hCO.
Hits were next validated in mature hCOs using a targeted concentration range based on their active concentrations in the initial immature hCO screen (FIG. 3A). Proliferation markers were quantified using high magnification confocal imaging as we found flow cytometry to be inaccurate in hCO (data not shown). Compounds 3, 63 and 65 had no impact on contractile force (FIG. 3B) at concentrations of 3 μM, 0.3 μM and 1 μM, respectively. […]

SMILES	farnesylation of NAP1L1 at Cys-388 [1]	farnesylation of NAP1L4 at Cys-383 [1]	proliferation signature proteins (cell cycle network, mevalonate enzymes, nuclear transporters) (mature hCO; mature hCO proteomics)	cell cycle programs regulated at the protein level (mature hCO)	cell cycle progression and mitosis of cardiomyocytes (pH3+) (mature hCOs)	induction of the mevalonate pathway (cholesterol biosynthetic process enzymes) (mature hCO; mature hCO proteomics)
Cc1ccc(NC(=O)c2ccnc(N3CCOCC3)c2)cc1Nc1ccnc(N2CC(C)OC(C)C2)n1 (centres unmarked) [compound 3]	increased	only increased farnesylation of NAP1L1	induced	DNA replication, G1/S transition and G2/M transition	promoted cell cycle progression and mitosis	–
Cc1cc(Oc2ccnc(Nc3ccc(S(N)(=O)=O)cc3)c2)c(-c2ccccn2)nc1C [compound 65]	increased	increased	induced	DNA replication, G1/S transition and G2/M transition	promoted cell cycle progression and mitosis	most robust inducers
